We go through 15 compounds from patent US20240208992A1, “MACROCYCLES AS CFTR MODULATORS” (Idorsia Pharmaceuticals Ltd, priority 2021, published 2024).

This assay deals with human F508del-CFTR (Homo sapiens, UniProt P13569, DEL508-508). Briefly: F508del-CFTR cell surface expression (corrector activity), DiscoveRx ß-galactosidase complementation chemiluminescence assay in recombinant U2OS cell line.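 For all read-outs here: U2OS cells co-expressing ProLink-tagged F508del-CFTR and a membrane-anchored enzyme acceptor, where more surface CFTR restores β-galactosidase activity measured by chemiluminescence.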 The following applies: U2OS cell line, 16h compound incubation; for EC50: EC50, F508del-CFTR cell surface expression, geomean values; for Emax: U2OS, in relation to the Emax of the corrector lumacaftor (=100%), arithmetic mean values.
Sequence of human F508del-CFTR (P13569 with tags, fused parts or gaps DEL508-508): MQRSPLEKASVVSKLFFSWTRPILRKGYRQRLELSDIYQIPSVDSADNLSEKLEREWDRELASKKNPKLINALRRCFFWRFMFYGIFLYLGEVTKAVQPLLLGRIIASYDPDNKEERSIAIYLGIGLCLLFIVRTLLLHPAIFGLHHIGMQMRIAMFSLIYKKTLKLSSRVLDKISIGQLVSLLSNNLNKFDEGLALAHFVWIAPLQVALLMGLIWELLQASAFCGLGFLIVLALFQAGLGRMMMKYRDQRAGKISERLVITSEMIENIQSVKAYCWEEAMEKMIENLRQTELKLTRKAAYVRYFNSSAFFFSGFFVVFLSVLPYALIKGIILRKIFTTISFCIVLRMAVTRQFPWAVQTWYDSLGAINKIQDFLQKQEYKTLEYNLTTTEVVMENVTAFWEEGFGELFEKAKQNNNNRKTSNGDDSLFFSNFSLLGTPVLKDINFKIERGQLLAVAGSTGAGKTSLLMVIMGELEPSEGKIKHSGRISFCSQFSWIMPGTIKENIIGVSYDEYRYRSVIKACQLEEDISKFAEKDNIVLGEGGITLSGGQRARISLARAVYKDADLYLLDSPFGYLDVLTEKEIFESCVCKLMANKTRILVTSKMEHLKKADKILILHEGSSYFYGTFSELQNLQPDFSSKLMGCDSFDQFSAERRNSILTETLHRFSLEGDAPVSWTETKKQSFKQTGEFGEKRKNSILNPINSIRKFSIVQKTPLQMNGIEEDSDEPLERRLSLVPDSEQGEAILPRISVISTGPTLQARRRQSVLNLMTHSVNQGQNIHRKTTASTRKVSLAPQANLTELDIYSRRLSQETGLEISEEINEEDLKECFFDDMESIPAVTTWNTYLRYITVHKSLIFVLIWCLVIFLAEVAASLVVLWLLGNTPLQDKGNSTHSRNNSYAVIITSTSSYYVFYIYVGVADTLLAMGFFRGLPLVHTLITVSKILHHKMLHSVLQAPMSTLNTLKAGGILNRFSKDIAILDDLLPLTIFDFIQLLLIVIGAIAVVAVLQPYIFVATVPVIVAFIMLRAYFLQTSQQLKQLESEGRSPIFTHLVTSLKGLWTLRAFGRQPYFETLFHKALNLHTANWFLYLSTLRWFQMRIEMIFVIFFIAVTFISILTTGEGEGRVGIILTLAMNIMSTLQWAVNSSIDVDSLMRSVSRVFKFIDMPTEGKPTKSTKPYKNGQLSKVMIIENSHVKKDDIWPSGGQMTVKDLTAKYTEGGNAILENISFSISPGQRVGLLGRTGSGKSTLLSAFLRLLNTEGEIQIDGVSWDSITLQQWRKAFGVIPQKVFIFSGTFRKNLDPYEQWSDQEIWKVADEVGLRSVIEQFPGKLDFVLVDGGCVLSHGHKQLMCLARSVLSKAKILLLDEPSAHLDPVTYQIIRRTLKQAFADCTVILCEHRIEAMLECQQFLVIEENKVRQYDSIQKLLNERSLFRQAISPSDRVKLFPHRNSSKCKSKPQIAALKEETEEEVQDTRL

For orientation: EC50 means the concentration needed to bring the measured effect to its halfway point. Broadly, the Emax is the maximal effect, on the per cent scale that the assay sets. On to `COc1nccc2c1C(=O)N[C@H](C(=O)NCCn1cc(C3CC3)cn1)CC(=O)N(C)[C@@H](CC(C)C)C(=O)N1CCCC[C@@H]1C(=O)N[C@H](Cc1ccccc1)CO2` [Example 179, (7S,11S,17aR,20R)-20-benzyl-N-(2-(4-cyclopropyl-1H-pyrazol-1-yl)ethyl)-11-isobutyl-4-methoxy-10-methyl-5,9,12,18-tetraoxo-5,6,7,8,9,10,11,12,15,16,17,17a,18,19,20,21-hexadecahydro-14H-dipyrido[2,1-f:3′,4′-p][1]oxa[4,7,10,14]tetraazacycloheptadecine-7-carboxamide], for which the EC50 is 731 nM and the Emax is 251%.
Consider `COc1cccc(CCNC(=O)[C@@H]2CC(=O)N(C)[C@@H](CC(C)C)C(=O)N3CCCC[C@@H]3C(=O)N[C@H](Cc3ccccc3)COc3ccnc(OC)c3C(=O)N2)c1` [Example 180, (7S,11S,17aR,20R)-20-benzyl-11-isobutyl-4-methoxy-N-(3-methoxyphenethyl)-10-methyl-5,9,12,18-tetraoxo-5,6,7,8,9,10,11,12,15,16,17,17a,18,19,20,21-hexadecahydro-14H-dipyrido[2,1-f:3′,4′-p][1]oxa[4,7,10,14]tetraazacycloheptadecine-7-carboxamide], for which the EC50 was found to be 388 nM and the Emax was determined as 257%.
For `COc1nccc2c1C(=O)N[C@H](C(=O)NCCc1ccc(-c3ncccn3)cc1)CC(=O)N(C)[C@@H](CC(C)C)C(=O)N1CCCC[C@@H]1C(=O)N[C@H](Cc1ccccc1)CO2` [Example 181, (7S,11S,17aR,20R)-20-benzyl-11-isobutyl-4-methoxy-10-methyl-5,9,12,18-tetraoxo-N-(4-(pyrimidin-2-yl)phenethyl)-5,6,7,8,9,10,11,12,15,16,17,17a,18,19,20,21-hexadecahydro-14H-dipyrido[2,1-f:3′,4′-p][1]oxa[4,7,10,14]tetraazacycloheptadecine-7-carboxamide], the EC50 stood at 718 nM and the Emax was 251%.
Consider `COc1nccc2c1C(=O)N[C@H](C(=O)NCCc1nc(-c3ccccc3)no1)CC(=O)N(C)[C@@H](CC(C)C)C(=O)N1CCCC[C@@H]1C(=O)N[C@H](Cc1ccccc1)CO2` [Example 182, (7S,11S,17aR,20R)-20-benzyl-11-isobutyl-4-methoxy-10-methyl-5,9,12,18-tetraoxo-N-(2-(3-phenyl-1,2,4-oxadiazol-5-yl)ethyl)-5,6,7,8,9,10,11,12,15,16,17,17a,18,19,20,21-hexadecahydro-14H-dipyrido[2,1-f:3′,4′-p][1]oxa[4,7,10,14]tetraazacycloheptadecine-7-carboxamide], for which the EC50 was found to be 406 nM and the Emax was found to be 270%.
Consider `COc1nccc2c1C(=O)N[C@H](C(=O)NCCc1ccccc1)CC(=O)N(C)[C@@H](CC(C)C)C(=O)N1CCCC[C@@H]1C(=O)N[C@H](Cc1ccccc1)CO2` [Example 183, (7S,11S,17aR,20R)-20-benzyl-11-isobutyl-4-methoxy-10-methyl-5,9,12,18-tetraoxo-N-phenethyl-5,6,7,8,9,10,11,12,15,16,17,17a,18,19,20,21-hexadecahydro-14H-dipyrido[2,1-f:3′,4′-p][1]oxa[4,7,10,14]tetraazacycloheptadecine-7-carboxamide], for which the half-maximal effective concentration (EC50) stood at 621 nM and the Emax stood at 237%.
As for `COc1nccc2c1C(=O)N[C@H](C(=O)NCCc1ccc(Br)cc1)CC(=O)N(C)[C@@H](CC(C)C)C(=O)N1CCCC[C@@H]1C(=O)N[C@H](Cc1ccccc1)CO2` [Example 184, (7S,11S,17aR,20R)-20-benzyl-N-(4-bromophenethyl)-11-isobutyl-4-methoxy-10-methyl-5,9,12,18-tetraoxo-5,6,7,8,9,10,11,12,15,16,17,17a,18,19,20,21-hexadecahydro-14H-dipyrido[2,1-f:3′,4′-p][1]oxa[4,7,10,14]tetraazacycloheptadecine-7-carboxamide], the EC50 turned out to be 410 nM and the maximal response (Emax) was determined as 205%.
The like results for `COc1ccc(CCNC(=O)[C@@H]2CC(=O)N(C)[C@@H](CC(C)C)C(=O)N3CCCC[C@@H]3C(=O)N[C@H](Cc3ccccc3)COc3ccnc(OC)c3C(=O)N2)cc1` [Example 185, (7S,11S,17aR,20R)-20-benzyl-11-isobutyl-4-methoxy-N-(4-methoxyphenethyl)-10-methyl-5,9,12,18-tetraoxo-5,6,7,8,9,10,11,12,15,16,17,17a,18,19,20,21-hexadecahydro-14H-dipyrido[2,1-f:3′,4′-p][1]oxa[4,7,10,14]tetraazacycloheptadecine-7-carboxamide] were, in that order, 379 nM and 275%.
On to `COc1nccc2c1C(=O)N[C@H](C(=O)NCCc1cccc(C)c1)CC(=O)N(C)[C@@H](CC(C)C)C(=O)N1CCCC[C@@H]1C(=O)N[C@H](Cc1ccccc1)CO2` [Example 186, (7S,11S,17aR,20R)-20-benzyl-11-isobutyl-4-methoxy-10-methyl-N-(3-methylphenethyl)-5,9,12,18-tetraoxo-5,6,7,8,9,10,11,12,15,16,17,17a,18,19,20,21-hexadecahydro-14H-dipyrido[2,1-f:3′,4′-p][1]oxa[4,7,10,14]tetraazacycloheptadecine-7-carboxamide], for which the EC50 was 644 nM and the Emax was 209%.
`COc1nccc2c1C(=O)N[C@H](C(=O)NCCc1cnn(C3CC3)n1)CC(=O)N(C)[C@@H](CC(C)C)C(=O)N1CCCC[C@@H]1C(=O)N[C@H](Cc1ccccc1)CO2` [Example 187, (7S,11S,17aR,20R)-20-benzyl-N-(2-(2-cyclopropyl-2H-1,2,3-triazol-4-yl)ethyl)-11-isobutyl-4-methoxy-10-methyl-5,9,12,18-tetraoxo-5,6,7,8,9,10,11,12,15,16,17,17a,18,19,20,21-hexadecahydro-14H-dipyrido[2,1-f:3′,4′-p][1]oxa[4,7,10,14]tetraazacycloheptadecine-7-carboxamide]: the EC50 is 645 nM and the Emax worked out at 267%.
Take `COc1cnn(CCNC(=O)[C@@H]2CC(=O)N(C)[C@@H](CC(C)C)C(=O)N(C)C3(CC3)C(=O)N[C@H](Cc3ccccc3)COc3cnc4ccc(F)cc4c3C(=O)N2)c1` [Example 188, (3′S,7′S,13′R)-13′-benzyl-20′-fluoro-7′-isobutyl-N-(2-(4-methoxy-1H-pyrazol-1-yl)ethyl)-6′,9′-dimethyl-1′,5′,8′,11′-tetraoxo-2′,3′,4′,5′,6′,7′,8′,9′,11′,12′,13′,14′-dodecahydro-1′H-spiro[cyclopropane-1,10′-[1]oxa[4,7,10,14]tetraazacycloheptadecino[17,16-c]quinoline]-3′-carboxamide]: the EC50 turned out to be 586 nM and the Emax was found to be 275%.
Regarding `C#Cc1cccc(CCNC(=O)[C@@H]2CC(=O)N(C)[C@@H](CC(C)C)C(=O)N3CCCC[C@@H]3C(=O)N[C@H](Cc3ccccc3)COc3ccnc(OC)c3C(=O)N2)c1` [Example 189, (7S,11S,17aR,20R)-20-benzyl-N-(3-ethynylphenethyl)-11-isobutyl-4-methoxy-10-methyl-5,9,12,18-tetraoxo-5,6,7,8,9,10,11,12,15,16,17,17a,18,19,20,21-hexadecahydro-14H-dipyrido[2,1-f:3′,4′-p][1]oxa[4,7,10,14]tetraazacycloheptadecine-7-carboxamide], the EC50 came to 453 nM and the maximum response (Emax) is 270%.
As for `COc1nccc2c1C(=O)N[C@H](C(=O)NCCc1nc3c(s1)CCC3)CC(=O)N(C)[C@@H](CC(C)C)C(=O)N1CCCC[C@@H]1C(=O)N[C@H](Cc1ccccc1)CO2` [Example 190, (7S,11S,17aR,20R)-20-benzyl-N-(2-(5,6-dihydro-4H-cyclopenta[d]thiazol-2-yl)ethyl)-11-isobutyl-4-methoxy-10-methyl-5,9,12,18-tetraoxo-5,6,7,8,9,10,11,12,15,16,17,17a,18,19,20,21-hexadecahydro-14H-dipyrido[2,1-f:3′,4′-p][1]oxa[4,7,10,14]tetraazacycloheptadecine-7-carboxamide], the EC50 worked out at 334 nM and the Emax came to 310%.
With `COc1nccc2c1C(=O)N[C@H](C(=O)NCCc1cc(C(F)F)no1)CC(=O)N(C)[C@@H](CC(C)C)C(=O)N1CCCC[C@@H]1C(=O)N[C@H](Cc1ccccc1)CO2` [Example 191, (7S,11S,17aR,20R)-20-benzyl-N-(2-(3-(difluoromethyl)isoxazol-5-yl)ethyl)-11-isobutyl-4-methoxy-10-methyl-5,9,12,18-tetraoxo-5,6,7,8,9,10,11,12,15,16,17,17a,18,19,20,21-hexadecahydro-14H-dipyrido[2,1-f:3′,4′-p][1]oxa[4,7,10,14]tetraazacycloheptadecine-7-carboxamide], the EC50 came to 474 nM and the Emax worked out at 295%.
As for `COc1cc2c(cc1OC)C(=O)N[C@H](C(=O)NCCc1ccc(C)cc1)CC(=O)N(C)[C@@H](CC(C)C)C(=O)N(C)CC(=O)N[C@H](Cc1ccccc1)CO2` [Example 192, (3R,9S,13S)-3-benzyl-9-isobutyl-17,18-dimethoxy-7,10-dimethyl-N-(4-methylphenethyl)-5,8,11,15-tetraoxo-2,3,4,5,6,7,8,9,10,11,12,13,14,15-tetradecahydrobenzo[p][1]oxa[4,7,10,14]tetraazacycloheptadecine-13-carboxamide], the EC50 was determined as 316 nM and the Emax came to 107%.
Take `COc1ccc(CCNC(=O)[C@@H]2CC(=O)N(C)[C@@H](CC(C)C)C(=O)N(C)CC(=O)N[C@H](Cc3ccccc3)COc3cc(OC)c(OC)cc3C(=O)N2)cc1` [Example 193, (3R,9S,13S)-3-benzyl-9-isobutyl-17,18-dimethoxy-N-(4-methoxyphenethyl)-7,10-dimethyl-5,8,11,15-tetraoxo-2,3,4,5,6,7,8,9,10,11,12,13,14,15-tetradecahydrobenzo[p][1]oxa[4,7,10,14]tetraazacycloheptadecine-13-carboxamide]: the EC50 amounted to 521 nM and the Emax was found to be 118%.
